What is called IC50 is the concentration at which inhibition is half-maximal.

In one assay the target is T1, MAGL (Homo sapiens, UniProt Q99685).
T1 sequence (Q99685 1-303): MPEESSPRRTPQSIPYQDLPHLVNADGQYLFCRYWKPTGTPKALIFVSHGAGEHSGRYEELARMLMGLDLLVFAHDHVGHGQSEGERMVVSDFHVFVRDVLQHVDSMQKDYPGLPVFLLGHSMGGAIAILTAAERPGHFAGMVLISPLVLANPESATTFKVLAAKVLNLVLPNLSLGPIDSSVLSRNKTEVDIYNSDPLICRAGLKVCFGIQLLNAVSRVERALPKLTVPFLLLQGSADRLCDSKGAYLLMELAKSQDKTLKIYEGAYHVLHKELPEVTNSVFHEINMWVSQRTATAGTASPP
Nature of the assay: Native MS (RapidFire) 2-AG substrate assay, purified human MAGL. The class given is biochemical. The note with it: SI Table 1; read-out: IC50 against purified MAGL ± SEM, Human. How it is done: (§1) In vitro MAGL Inhibition Assay
(§2) Compounds were profiled for MAGL inhibitory activity by determining the enzymatic activity by following the hydrolysis of the natural substrate 2-arachidonoylglycerol (2-AG), resulting in arachidonic acid, which can be followed by mass spectrometry. The 2-AG assay was carried out in 384 well assay plates (PP, Greiner Cat# 784201) in a total volume of 20 µL. Compound dilutions were made in 100% DMSO (VWR Chemicals 23500.297) in a polypropylene plate in 3-fold dilution steps to give a final concentration range in the assay from 12.5 µM to 0.8 pM. 0.25µL compound dilutions (100% DMSO) were added to 9 µL MAGL in assay buffer (50 mM TRIS (GIBCO, 15567-027), 1 mM EDTA (Fluka, 03690-100 mL), 0.01% (v/v) Tween. After shaking, the plate was incubated for 15 min at RT. To start the reaction, 10 µL 2-arachidonoylglycerol in assay buffer was added. The final concentrations in the assay were 50 pM MAGL and 8 µM 2-arachidonoylglyerol. After shaking and 30 min incubation at RT, the reaction was quenched by the addition of 40µL of ACN containing 4µM of d8-arachidonic acid. The amount of arachidonic acid was traced by an online SPE system (Agilent Rapidfire) coupled to a triple quadrupole mass spectrometer (Agilent 6460). A C18 SPE cartridge (G9205A) was used in an ACN/water liquid setup. The mass spectrometer was operated in negative electrospray mode following the mass transitions 303.1 → 259.1 for arachidonic acid and 311.1 → 267.0 for d8-arachidonic acid. The activity of the compounds was calculated based on the ratio of intensities [arachidonic acid / d8-arachidonic acid]. The lowest IC50 value that can be determined with high accuracy is approximately 0.025 nM.

The next assay addresses T2, mMAGL (Mus musculus, UniProt O35678).
T2 sequence (O35678 1-303): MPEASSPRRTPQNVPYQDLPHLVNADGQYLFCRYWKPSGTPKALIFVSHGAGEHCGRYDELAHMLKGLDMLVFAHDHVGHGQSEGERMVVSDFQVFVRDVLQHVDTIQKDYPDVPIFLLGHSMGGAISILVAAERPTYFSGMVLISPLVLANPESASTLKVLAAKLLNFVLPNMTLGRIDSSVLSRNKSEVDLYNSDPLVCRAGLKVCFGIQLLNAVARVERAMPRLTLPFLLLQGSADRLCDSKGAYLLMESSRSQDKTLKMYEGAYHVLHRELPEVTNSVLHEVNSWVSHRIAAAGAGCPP
Nature of the assay: Native MS (RapidFire) 2-AG substrate assay, purified mouse MAGL. It counts as biochemical. The conditions noted are these: SI Table 1; read-out: IC50 against purified MAGL ± SEM, Mouse. As to the method: as §1, §2

Assay [1] concerns the target NanoLuc luciferase MAGL fusion protein. Kind of assay: Cellular MAGL NanoBRET target engagement assay in live HEK293 cells. The class given is cell-based. The note with it: SI Table 1, live HEK293 cells; read-out: NanoBRET IC50 ± SEM, HEK293. How it is done:
This assay was performed as first described before.20
Compounds were profiled by a novel cellular MAGL NanoBRET™ Target Engagement assay, which measures the apparent affinity of test compounds by competitive displacement of a Roche -developed Tracer (WO2021058443, Example 2 121, or probe 4a, respectively), reversibly bound to a NanoLuc ® luciferase MAGL fusion protein in cells.
A HEK293A stable cell line expressing NanoLuc_MAGL was established at Roche and assigned as HEK293A_NanoLuc_MAGL clone #43. A fixed concentration of tracer is added to cells expressing the NanoLuc®_MAGL fusion protein to generate a BRET reporter complex. The introduction of competing compounds results in a dose -dependent decrease in NanoBRET™ energy transfer, which allows quantification of the intracellular affinity of the target protein for the test compound.
HEK293A_NanoLuc_MAGL clone #43 cells were cultured in DMEM (Gibco 31966) with 10% FBS and 800 ug/ml G418. The NanoBRET assay was performed by seeding 5000 cells/well in Costar low - volume white 384-well plate in assay buffer (1% FBS in HBSS), followed by adding the tracer (50 nM Example 21 or 100 nM 4a final concentration) and serial dilutions of test compounds. After 2 hours of incubation, Nanoluciferase substrates and extracellular inhibitors were added following the manufacturer's protocol (Promega, #N2520), and the NanoBRET signaling were quantified with the Paradigm (Molecular Devices).
On the technique in general: BRET reads energy transfer from a luciferase to a nearby fluorophore.

In the next assay the target is T3, rMAGL (Rattus norvegicus, UniProt Q8R431).
T3 sequence (Q8R431 1-303): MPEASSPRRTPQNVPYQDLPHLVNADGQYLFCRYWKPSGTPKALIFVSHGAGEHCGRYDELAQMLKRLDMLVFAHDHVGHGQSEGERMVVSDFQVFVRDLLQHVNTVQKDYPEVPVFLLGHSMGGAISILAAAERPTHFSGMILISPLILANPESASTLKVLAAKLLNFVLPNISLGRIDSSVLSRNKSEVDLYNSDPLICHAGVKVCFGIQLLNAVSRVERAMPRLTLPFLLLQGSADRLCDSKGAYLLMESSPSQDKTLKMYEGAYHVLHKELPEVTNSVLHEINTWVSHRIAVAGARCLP
Nature of the assay: Native MS (RapidFire) 2-AG substrate assay, purified rat MAGL. It counts as biochemical. The note with it: SI Table 1; read-out: IC50 against purified MAGL ± SEM, Rat. As to the method: as §1, §2

The next assay concerns the target T4, cMAGL (Macaca fascicularis, UniProt A0A2K5V664).
T4 sequence (A0A2K5V664 11-297): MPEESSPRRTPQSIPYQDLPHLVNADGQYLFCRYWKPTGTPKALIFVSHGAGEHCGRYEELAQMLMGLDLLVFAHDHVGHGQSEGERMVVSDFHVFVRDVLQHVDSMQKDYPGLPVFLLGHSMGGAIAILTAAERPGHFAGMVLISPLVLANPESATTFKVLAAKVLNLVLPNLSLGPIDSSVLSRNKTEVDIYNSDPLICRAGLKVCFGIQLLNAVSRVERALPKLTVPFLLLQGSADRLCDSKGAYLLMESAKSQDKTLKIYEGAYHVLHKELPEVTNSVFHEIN
Nature of the assay: Native MS (RapidFire) 2-AG substrate assay, purified cynomolgus monkey MAGL. The conditions noted are these: SI Table 1; read-out: IC50 against purified MAGL ± SEM, Cynomolgus. It counts as biochemical. As to the method:
as §1, §2

Consider `O=C1CO[C@H]2CCN(C(=O)N3C[C@@H]4[C@@H](COC5=C6C=CC=[N+]6[B-](F)(F)n6cccc65)[C@@H]4C3)C[C@H]2N1` [Compound S3], for which the figures for the IC50 (on MAGL; at mMAGL; in assay [1]) were 500 nM, 1040 nM and greater than 10000 nM, respectively.
In the same order, the values of `O=C1CO[C@H]2CCN(C(=O)N3CCC4(CC3)CC(OC3=C5C=CC=[N+]5[B-](F)(F)n5cccc53)C4)C[C@H]2N1` [Compound S6] are 45 nM, 170 nM and greater than 10000 nM.
In the same order, the values of `O=C1NC2(CO1)CN(C(=O)N1CC3(CCC(=CC4=C5C=CC=[N+]5[B-](F)(F)n5cccc54)CC3)C1)C2` [Compound S16] are 0.67 nM, 0.81 nM and 574 nM.
In the same order, the values of `O=C1N[C@H](CCC(=O)N2CC3(CC(CC4=C5C=CC=[N+]5[B-](F)(F)n5cccc54)C3)C2)CO1` [Compound S17] are 1.01 nM, 0.84 nM and 300 nM.
As to `O=C1CO[C@H]2CCN(C(=O)N3CC4(CC(=CC5=C6C=CC=[N+]6[B-](F)(F)n6cccc65)C4)C3)C[C@H]2N1` [Compound S13], the concentration for half-maximal inhibition (IC50) at MAGL is 43.3 nM; at mMAGL, 182 nM; in assay [1], greater than 10000 nM.
In the same order, the values of `O=C1NC2(CO1)CN(C(=O)N1CC3(CC(=CC4=C5C=CC=[N+]5[B-](F)(F)n5cccc54)C3)C1)C2` [Compound S14] are 12.6 nM, 12.4 nM and greater than 10000 nM.
Taken in the same sequence, the figures for `O=C1CO[C@H]2CCN(C(=O)N3CCC(=CC4=C5C=CC=[N+]5[B-](F)(F)n5cccc54)CC3)C[C@H]2N1` [Compound S10] were 1680 nM, 3400 nM and greater than 10000 nM.
Regarding `O=C1NC2(CO1)CN(C(=O)N1CC3(CC(CC4=C5C=CC=[N+]5[B-](F)(F)n5cccc54)C3)C1)C2` [Compound S15], the IC50 was 4.46 nM on rMAGL; 1.26 nM on MAGL; 3.27 nM on cMAGL; 1.36 nM on mMAGL; 5540 nM in assay [1].
Regarding `NC(=O)[C@H]1CCN(C(=O)N2CC3(CC(CC4=C5C=CC=[N+]5[B-](F)(F)n5cccc54)C3)C2)C1` [Compound S18], the IC50 was 1.98 nM at MAGL, 2.07 nM on mMAGL and 1940 nM in assay [1].
Regarding `O=C1CO[C@H]2CCN(C(=O)N3CC4(CC(CC5=C6C=CC(c7ccccc7)=[N+]6[B-](F)(F)n6cccc65)C4)C3)C[C@H]2N1` [Compound S22], the results for the IC50 (on MAGL; at mMAGL; in assay [1]) were 0.66 nM, 0.37 nM and 56 ± 6 nM, respectively.
Taken in the same sequence, the figures for `O=C1NC2(CO1)CN(C(=O)N1CCC3(CC1)CC(OC1=C4C=CC=[N+]4[B-](F)(F)n4cccc41)C3)C2` [Compound S8] were 3.99 nM, 13.6 nM and greater than 10000 nM.
With `O=C1CO[C@H]2CCN(C(=O)N3CC4(CCC(CC5=C6C=CC=[N+]6[B-](F)(F)n6cccc65)CC4)C3)C[C@H]2N1` [Compound S12], the IC50 was determined as 10.9 nM on rMAGL; 2.35 nM on MAGL; 2.73 nM on cMAGL; 12.4 nM at mMAGL; 564 nM in assay [1].
`O=C1COc2ccc(C(=O)N3CC4(CC(CC5=C6C=CC=[N+]6[B-](F)(F)n6cccc65)C4)C3)cc2N1` [Compound S19]: the figures for the IC50 (on MAGL; at mMAGL; in assay [1]) were 7.5 nM, 18.6 nM and 299 nM, respectively.
As to `O=C1CO[C@H]2CCN(C(=O)N3CC4(CCC(OC5=C6C=CC=[N+]6[B-](F)(F)n6cccc65)CC4)C3)C[C@H]2N1` [Compound S4], the IC50 at rMAGL was found to be 21.6 nM; at MAGL it was 3.82 ± 1.91 nM; at cMAGL, 8.37 nM; at mMAGL, 7.06 ± 4.73 nM; in assay [1] it was 4630 ± 52 nM.
Turning to `Cc1ccc2oc(N3CCN(C(=O)N4CC5(CC(CC6=C7C=CC=[N+]7[B-](F)(F)n7cccc76)C5)C4)CC3)nc2n1` [Compound S20], the values for the IC50 (on MAGL; on mMAGL; in assay [1]) were 17.2 nM, 108 nM and greater than 10000 nM, respectively.

For the origin of these results see publication PMC11951083, “Highly Specific Miniaturized Fluorescent Monoacylglycerol Lipase Probes Enable Translational Research” (Journal of the American Chemical Society, 2025).
